Consider five compounds from ChEMBL document CHEMBL3124773, “Stereoselective preparation of pyridoxal 1,2,3,4-tetrahydro-β-carboline derivatives and the influence of their absolute and relative configuration on the proliferation of the malaria parasite Plasmodium falciparum” (Bioorg Med Chem, 2014).

The test system of this experiment is Plasmodium falciparum. The experiment in a line: Antiplasmodial activity against Plasmodium falciparum 3D7 infected in human erythrocytes after 48 hrs by [3H]hypoxanthine incorporation assay. It is filed as functional, organism-based.

Compound `COC(=O)C1Cc2c([nH]c3ccccc23)C(c2c(CO)cnc(C)c2O)N1` (stereo not given) gave an IC50 of 14 µM. The compound `COC(=O)[C@@H]1Cc2c([nH]c3ccccc23)[C@H](c2c(CO)cnc(C)c2O)N1` yielded a concentration for half-maximal inhibition (IC50) of 91 µM. As to `COC(=O)[C@@H]1Cc2c([nH]c3ccccc23)[C@@H](c2c(CO)cnc(C)c2O)N1`, half-maximal inhibition (IC50) was put at 22 µM. For the compound `COC(=O)[C@H]1Cc2c([nH]c3ccccc23)[C@@H](c2c(CO)cnc(C)c2O)N1`, 108 µM corresponded to half-maximal inhibition (IC50). With `COC(=O)[C@H]1Cc2c([nH]c3ccccc23)[C@H](c2c(CO)cnc(C)c2O)N1`, the half-maximal inhibitory concentration (IC50) is 8 µM.

As a reminder, the IC50 is the concentration at which inhibition is half-maximal. The low end stands for inhibition by little substance, the high end for a need for much substance.
